According to patent EP0386667B1, “6-Amino-6-desoxyfumagillols, production and use thereof” (Takeda Chemical Industries, Ltd., priority 1989, dated 1990):
Values after ≈ are worked out from the molar mass of the structure shown.

Experiments:
[1] = system: bFGF-induced angiogenesis; assay: angiogenesis inhibitory activity by the rat cornea micropocket method; format: in vivo, Sprague-Dawley rats; conditions: number of rats on which angiogenesis inhibitory activity was observed relative to the number of rats tested, sample pellet 20 µg beside bFGF (250 ng) pellet in cornea, observed after 10 days; for responders at 20 µg/pellet: Rattus norvegicus, 240 h, read-out: Inhibitory Rate (converted)
Procedure: The object compounds (I) obtained in the Working Examples given below were evaluated for angiogenesis inhibitory activity by the rat cornea micropocket method.
Essentially the same method of Gimbrone et al. [J. National Cancer Institute, 52, 413-419 (1974)] was followed. Thus, adult male Sprague-Dawley rats 11 to 16 week old) were anesthetized with nembutal and locally anesthetized by instillation of xylocaine eyedrops onto the eyeball. The cornea was incised to a length of about 2 mm at about 2 mm inside from the corneal circumference by means of an injection needle, and a sustained release pellet containing basic fibroblast growth growth factor (bFGF; bovine brain-derived, purified product; R & D Inc.) and a sustained release pellet containing the test sample were inserted side by side into the incision so that the bFGF pellet was located on the central side in the cornea. In the control group, the bFGF pellet and a sample-free pellet were inserted into the cornea. After 10 days, the cornea was observed under a stereoscopic microscope.
The sustained release pellets were prepared in the following manner. An ethylene-vinyl acetate copolymer (Takeda Chemical Industries, Ltd.) was dissolved in dichloromethane to a concentration of 8%. A 3 µl portion of the solution was air-dried on a glass dish, an aqueous solution of bFGF (250 ng) was then placed thereon and air-dried and, finally 3 µl of the above ethylene-vinyl acetate copolymer solution was placed further thereon and air-dried to give a sandwich sheet. This sandwich sheet was made round into a bFGF pellet. The test sample pellets were prepared by dissolving each sample in ethanol in a concentration of 20 µg/2 µl, mixing the solution with 6 µl of an ethylene-vinyl acetate copolymer solution, air-drying the mixed solution in a glass dish and making the thus-obtained sheet round.
Incidentally, in the Table 1 below, the inhibitory rate means the number of rats on which angiogenesis inhibitory activity was observed relative to the number of rats tested.

[2] = system: Human umbilical vein endothelial cells; assay: inhibition of human umbilical vein endothelial cell growth (MTT); format: cell-based; conditions: rFGF 2 ng/ml, 5-day culture, concentration giving 50% OD value of control; for IC50: Homo sapiens, Endothelial cell, 120 h, read-out: IC₅₀
Procedure: Human umbilical vein endothelial cells were isolated by perfusion of an umbilical vein with a trypsin-containing medium. The cells were cultured in sequence in GIT medium (Nihon Pharm. In.) supplemented with 2.5% fetal bovine serum and 2.0 ng/ml or recombinant human fibroblast growth factor (hereinafter simply referred to rFGF, prepared at Biotechnology Research Laboratories, Takeda Chemical Industries, Ltd.).
A suspension of human vein endothelial cells at the cell density of 2 x 10³ (100 µl) was seeded on 96-well incubation plate (Nunc, 1-67008), and incubation was conducted in a gas-controlled thermostat vessel. […] After 5-day culture, the medium was removed by suction, 100 µl of 1 mg/ml of MTT solution [3-(4,5-dimethyl-2-thiazolyl)-2,5-diphenyl-2H-tetrazolium bromide was dissolved in the medium] was added and kept warming for 4 hours. Then, 100 µl of a 10% SDS solution (aqueous solution of sodium dodecyl sulfate) was added, and the mixture was kept warming for 5-6 hours. The cells and MTT pigment were solubilized, and the optical density ([…]) was measured using a spectrophotometer. The OD value of the control group to which no test sample was added was set as 100%, and the activity of each test sample for inhibiting endothelial cell growth was shown in Table 2 by the concentration of the test compound giving 50% OD value, i.e. IC₅₀ value.

| Compound | Inhibitory Rate [1] | IC₅₀ [2] [ng/mL] | IC50 [2] [ng/mL] | responders at 20 µg/pellet [1] [%] |
| --- | --- | --- | --- | --- |
| 6β-(N′-chloroacetylureido)-4′,5′-dihydro-6-desoxyfumagillol [Example 14] | 5/5 | 0.14 |  |  |
| CO[C@@H]1[C@H](N)CC[C@]2(CO2)[C@H]1[C@@]1(C)O[C@@H]1CC=C(C)C [Example 1, 6α-Amino-desoxyfumagillol] |  |  | 7.92 (≈ 28.1 nM) |  |
| CO[C@@H]1[C@H](Nc2ccccc2)CC[C@]2(CO2)[C@H]1[C@@]1(C)O[C@@H]1CC=C(C)C [Example 2, 6α-Phenylamino-6-desoxyfumagillol] |  |  |  | 62.5 |
| CO[C@@H]1[C@H](N(C)C(C)=O)CC[C@]2(CO2)[C@H]1[C@@]1(C)O[C@@H]1CC=C(C)C [Example 3, 6α-(Acetyl)methylamino-6-desoxyfumagillol] |  |  | 3.21 (≈ 9.51 nM) | 50 |
| CO[C@@H]1[C@H](NC(C)=O)CC[C@]2(CO2)[C@H]1[C@@]1(C)O[C@@H]1CC=C(C)C [Example 5, 6α-Acetylamino-6-desoxyfumagillol] |  |  | 0.06 (≈ 0.186 nM) | 57.1 |
| CO[C@@H]1[C@H](NS(=O)(=O)c2ccc(C)cc2)CC[C@]2(CO2)[C@H]1[C@@]1(C)O[C@@H]1CC=C(C)C [Example 6, 6α-(p-Toluenesulfonylamino)-6-desoxyfumagillol] |  |  | 7.04 (≈ 16.2 nM) | 75 |
| CO[C@@H]1[C@H](NC(=O)OCC(C)C)CC[C@]2(CO2)[C@H]1[C@@]1(C)O[C@@H]1CC=C(C)C [Example 7, 6α-(Isobutyloxy-carbonylamino)-6-desoxyfumagillol] |  |  | 0.17 (≈ 0.446 nM) | 100 |
| CO[C@@H]1[C@H](NC(=O)c2ccccc2)CC[C@]2(CO2)[C@H]1[C@@]1(C)O[C@@H]1CC=C(C)C [Example 8, 6α-Benzoylamino-6-desoxyfumagillol] |  |  | 0.2 (≈ 0.519 nM) | 85.7 |
| CO[C@@H]1[C@H](NC(=O)NC(=O)CCl)CC[C@]2(CO2)[C@H]1[C@@]1(C)O[C@@H]1CC=C(C)C [Example 9, 6α-(N′-chloroacetylureido)-6-desoxyfumagillol] |  |  | 0.057 (≈ 0.142 nM) | 100 |
| CO[C@@H]1[C@H](NC(=S)Nc2cccc3ccccc23)CC[C@]2(CO2)[C@H]1[C@@]1(C)O[C@@H]1CC=C(C)C [Example 10, 6α-[N′-(1-naphthyl)thioureido]-6-desoxyfumagillol] |  |  | 8.13 (≈ 17.4 nM) | 40 |
| CO[C@@H]1[C@H](NC(=O)Nc2cccc3ccccc23)CC[C@]2(CO2)[C@H]1[C@@]1(C)O[C@@H]1CC=C(C)C [Example 11, 6α-[N′-(1-naphthyl)ureido]-6-desoxyfumagillol] |  |  | 0.34 (≈ 0.755 nM) | 100 |
| CO[C@@H]1[C@H](NC(=O)NCCCl)CC[C@]2(CO2)[C@H]1[C@@]1(C)O[C@@H]1CC=C(C)C [Example 12, 6α-[N′-(2-chloroethyl)ureido]-6-desoxyfumagillol] |  |  | 1.16 (≈ 3 nM) |  |
| CO[C@@H]1[C@H](NC(N)=O)CC[C@]2(CO2)[C@H]1[C@@]1(C)O[C@@H]1CC=C(C)C [Example 13, 6α-Ureido-6-desoxyfumagillol] |  |  | 0.1 (≈ 0.308 nM) | 100 |
| CO[C@@H]1[C@@H](N)CC[C@]2(CO2)[C@H]1[C@@]1(C)O[C@@H]1CC=C(C)C [Example 16, 6β-Amino-6-desoxyfumagillol] |  |  | 9.49 (≈ 33.7 nM) | 50 |
| CO[C@@H]1[C@@H](N2CCCC2)CC[C@]2(CO2)[C@H]1[C@@]1(C)O[C@@H]1CC=C(C)C [Example 19, 6β-Pyrrolidino-6-desoxyfumagillol] |  |  |  | 66.7 |
| CO[C@H]1[C@H]([C@@]2(C)O[C@@H]2CC=C(C)C)[C@]2(CC[C@@H]1[N+]1(C)CCCC1)CO2 [Example 20, 6β-Pyrrolidino-6-desoxyfumagillol methyl iodide] |  |  |  | 42.9 |
